From patent US20120251465A1, “FLAVOR COMPOSITION CONTAINING FLAVONE GLYCOSIDES” (priority 2011, published 2012)

Test: Warming compositions evaluated by a trained sensory panel (intensity scale 0 to 5)
Conditions: flavone glycoside 1 ppm combined with capsicum oleoresin 2 ppm; for Enhancement of the warming effect of capsicum oleoresin: versus capsicum oleoresin 2 ppm alone; for Flavor Intensity: scale 0 to 5 (0=none, 1=minimal, 3=moderate, 5=intense)

For `COc1ccc(-c2cc(=O)c3c(O)cc(OC4OC(COC5OC(C)C(O)C(O)C5O)C(O)C(O)C4O)cc3o2)cc1` (centres unmarked) [Formula V, acacetin 7-O-rutinoside], the “Enhancement of the warming effect of capsicum oleoresin” value (“Enhancement” below) was “enhanced” and the “Flavor Intensity” value was 3.5.

For `O=c1cc(-c2ccc(O)cc2)oc2cc(OC3OC(CO)C(O)C(O)C3O)cc(O)c12` (centres unmarked) [Formula II, apigenin 7-O-glucoside], the “Enhancement” value was “enhanced” and the “Flavor Intensity” value was 2.5.

With `COc1ccc(-c2cc(=O)c3c(O)cc(OC4OC(CO)C(O)C(O)C4O)cc3o2)cc1` (centres unmarked) [Formula III, acacetin 7-O-glucoside] the “Enhancement” value was “enhanced” and the “Flavor Intensity” value was 2.5.

In the case of `CC1OC(OCC2OC(Oc3cc(O)c4c(=O)cc(-c5ccc(O)c(O)c5)oc4c3)C(O)C(O)C2O)C(O)C(O)C1O` (centres unmarked) [Formula IV, luteolin 7-O-rutinoside], the “Enhancement” value is reported as “enhanced” and the “Flavor Intensity” value is reported as 2.5.
